Where two headings read alike, the source gives them in different places.
Assays:
Test in all cases: Glasshouse assay for herbicidal activity (pre- and post-emergence), percentage phytotoxicity
Format in all cases: in vivo
Avena fatua (AVEFA) = settings: Avena fatua
How it was run: (§1)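 Pot-grown plants treated one day after sowing (pre-emergence) or at about 12 days (post-emergence); glasshouse at 24/18° C (warm) or 20/16° C (cool species) day/night, 16 h light, 65% humidity. Visual % phytotoxicity (0 = none, 100 = total damage) scored at 15 DAA post or 20 DAA pre.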

[1] = system: Echinochloa crus-galli (ECHCG); settings: Echinochloa crus-galli
How it was run: as §1

Lolium perenne (LOLPE) = settings: Lolium perenne
How it was run: as §1

[2] = system: Alopecurus myosuroides (ALOMY); settings: Alopecurus myosuroides
How it was run: as §1

[3] = post-emergence, 360 h, POST-emergence, rate 250 g/ha, visual score 15 DAA (100%=total damage, 0%=no damage), read-out: Post-emergence herbicidal activity (percentage phytotoxicity) AVEFA POST
[4] = pre-emergence, 480 h, PRE-emergence, rate 250 g/ha, visual score 20 DAA (100%=total damage, 0%=no damage), read-out: Pre-emergence herbicidal activity (percentage phytotoxicity) AVEFA PRE
[5] = post-emergence, 360 h, POST-emergence, rate 250 g/ha, visual score 15 DAA (100%=total damage, 0%=no damage), read-out: Post-emergence herbicidal activity (percentage phytotoxicity) ECHCG POST
[6] = pre-emergence, 480 h, PRE-emergence, rate 250 g/ha, visual score 20 DAA (100%=total damage, 0%=no damage), read-out: Pre-emergence herbicidal activity (percentage phytotoxicity) ECHCG PRE
[7] = post-emergence, 360 h, POST-emergence, rate 250 g/ha, visual score 15 DAA (100%=total damage, 0%=no damage), read-out: Post-emergence herbicidal activity (percentage phytotoxicity) LOLPE POST
[8] = pre-emergence, 480 h, PRE-emergence, rate 250 g/ha, visual score 20 DAA (100%=total damage, 0%=no damage), read-out: Pre-emergence herbicidal activity (percentage phytotoxicity) LOLPE PRE
[9] = post-emergence, 360 h, POST-emergence, rate 250 g/ha, visual score 15 DAA (100%=total damage, 0%=no damage), read-out: Post-emergence herbicidal activity (percentage phytotoxicity) ALOMY POST
[10] = pre-emergence, 480 h, PRE-emergence, rate 250 g/ha, visual score 20 DAA (100%=total damage, 0%=no damage), read-out: Pre-emergence herbicidal activity (percentage phytotoxicity) ALOMY PRE

Structure (SMILES)	pest or weed control at 250 g/ha (Avena fatua (AVEFA); [3]) [%]	pest or weed control at 250 g/ha (Avena fatua (AVEFA); [4]) [%]	pest or weed control at 250 g/ha [1, 5] [%]	pest or weed control at 250 g/ha [1, 6] [%]	pest or weed control at 250 g/ha (Lolium perenne (LOLPE); [7]) [%]	pest or weed control at 250 g/ha (Lolium perenne (LOLPE); [8]) [%]	pest or weed control at 250 g/ha [2, 9] [%]	pest or weed control at 250 g/ha [2, 10] [%]	further results
C=CCNC(=O)CC1CC(=O)C(c2c(C)cc(C)cc2CC)C1=O (stereo not drawn) [Compound B256]	100	100	100	100	100	100	100	100	
CCNC(=O)CC1CC(=O)C(c2c(C)cc(-c3ncc(Br)cn3)cc2C)C1=O (stereo not drawn) [Compound B282]	100	100	100	100	100	100	100	100	
Cc1cc(-c2ccc(Cl)cn2)cc(C)c1C1C(=O)CC(CC(=O)N(C)C(C)C)C1=O (stereo not drawn) [Compound B371]									pest or weed control at 250 g/ha (Avena fatua (AVEFA); post-emergence, 360 h, Rate 250 g/ha, post-emergence, visual assessment 15 DAA, 100%=total damage, 0%=no damage, read-out: Post-emergence herbicidal activity (percentage phytotoxicity) AVEFA POST): 100%; pest or weed control at 250 g/ha (Avena fatua (AVEFA); pre-emergence, 480 h, Rate 250 g/ha, pre-emergence, visual assessment 20 DAA, 100%=total damage, 0%=no damage, read-out: Pre-emergence herbicidal activity (percentage phytotoxicity) AVEFA PRE): 90%; pest or weed control at 250 g/ha ([1]; post-emergence, 360 h, Rate 250 g/ha, post-emergence, visual assessment 15 DAA, 100%=total damage, 0%=no damage, read-out: Post-emergence herbicidal activity (percentage phytotoxicity) ECHCG POST): 100%; pest or weed control at 250 g/ha ([1]; pre-emergence, 480 h, Rate 250 g/ha, pre-emergence, visual assessment 20 DAA, 100%=total damage, 0%=no damage, read-out: Pre-emergence herbicidal activity (percentage phytotoxicity) ECHCG PRE): 100%; pest or weed control at 250 g/ha (Lolium perenne (LOLPE); post-emergence, 360 h, Rate 250 g/ha, post-emergence, visual assessment 15 DAA, 100%=total damage, 0%=no damage, read-out: Post-emergence herbicidal activity (percentage phytotoxicity) LOLPE POST): 100%; pest or weed control at 250 g/ha (Lolium perenne (LOLPE); pre-emergence, 480 h, Rate 250 g/ha, pre-emergence, visual assessment 20 DAA, 100%=total damage, 0%=no damage, read-out: Pre-emergence herbicidal activity (percentage phytotoxicity) LOLPE PRE): 100%; pest or weed control at 250 g/ha ([2]; post-emergence, 360 h, Rate 250 g/ha, post-emergence, visual assessment 15 DAA, 100%=total damage, 0%=no damage, read-out: Post-emergence herbicidal activity (percentage phytotoxicity) ALOMY POST): 100%; pest or weed control at 250 g/ha ([2]; pre-emergence, 480 h, Rate 250 g/ha, pre-emergence, visual assessment 20 DAA, 100%=total damage, 0%=no damage, read-out: Pre-emergence herbicidal activity (percentage phytotoxicity) ALOMY PRE): 90%
C/C=C/c1cc(C)c(C2C(=O)CC(CC(=O)NCC3CC3)C2=O)c(CC)c1 (stereo not drawn) [Compound B196]	100	80	100	100	100	100	100	100	
CCCN(CC1CC1)C(=O)CC1CC(=O)C(c2c(C)cc(C)cc2C)C1=O (stereo not drawn) [Compound B79]									pest or weed control at 250 g/ha (Avena fatua (AVEFA); post-emergence, 360 h, 250 g/ha, post-emergence, 15 DAA, visual assessment (100%=total damage, 0%=no damage), read-out: Post-emergence herbicidal activity (percentage phytotoxicity) AVEFA POST): 10%; pest or weed control at 250 g/ha (Avena fatua (AVEFA); pre-emergence, 480 h, 250 g/ha, pre-emergence, 20 DAA, visual assessment (100%=total damage, 0%=no damage), read-out: Pre-emergence herbicidal activity (percentage phytotoxicity) AVEFA PRE): 0%; pest or weed control at 250 g/ha ([1]; post-emergence, 360 h, 250 g/ha, post-emergence, 15 DAA, visual assessment (100%=total damage, 0%=no damage), read-out: Post-emergence herbicidal activity (percentage phytotoxicity) ECHCG POST): 60%; pest or weed control at 250 g/ha ([1]; pre-emergence, 480 h, 250 g/ha, pre-emergence, 20 DAA, visual assessment (100%=total damage, 0%=no damage), read-out: Pre-emergence herbicidal activity (percentage phytotoxicity) ECHCG PRE): 80%; pest or weed control at 250 g/ha (Lolium perenne (LOLPE); post-emergence, 360 h, 250 g/ha, post-emergence, 15 DAA, visual assessment (100%=total damage, 0%=no damage), read-out: Post-emergence herbicidal activity (percentage phytotoxicity) LOLPE POST): 80%; pest or weed control at 250 g/ha (Lolium perenne (LOLPE); pre-emergence, 480 h, 250 g/ha, pre-emergence, 20 DAA, visual assessment (100%=total damage, 0%=no damage), read-out: Pre-emergence herbicidal activity (percentage phytotoxicity) LOLPE PRE): 80%; pest or weed control at 250 g/ha ([2]; post-emergence, 360 h, 250 g/ha, post-emergence, 15 DAA, visual assessment (100%=total damage, 0%=no damage), read-out: Post-emergence herbicidal activity (percentage phytotoxicity) ALOMY POST): 60%; pest or weed control at 250 g/ha ([2]; pre-emergence, 480 h, 250 g/ha, pre-emergence, 20 DAA, visual assessment (100%=total damage, 0%=no damage), read-out: Pre-emergence herbicidal activity (percentage phytotoxicity) ALOMY PRE): 60%
Cc1cc(-c2ncc(Cl)cc2F)cc(C)c1C1C(=O)CC(CC(=O)NCc2ccsc2Br)C1=O (stereo not drawn) [Compound A127]									pest or weed control at 250 g/ha (Avena fatua (AVEFA); post-emergence, 360 h, Rate 250 g/ha, post-emergence, assessed visually 15 DAA, 100%=total damage, 0%=no damage, read-out: Post-emergence herbicidal activity (percentage phytotoxicity) AVEFA POST): 70%; pest or weed control at 250 g/ha (Avena fatua (AVEFA); pre-emergence, 480 h, Rate 250 g/ha, pre-emergence, assessed visually 20 DAA, 100%=total damage, 0%=no damage, read-out: Pre-emergence herbicidal activity (percentage phytotoxicity) AVEFA PRE): 20%; pest or weed control at 250 g/ha ([1]; post-emergence, 360 h, Rate 250 g/ha, post-emergence, assessed visually 15 DAA, 100%=total damage, 0%=no damage, read-out: Post-emergence herbicidal activity (percentage phytotoxicity) ECHCG POST): 100%; pest or weed control at 250 g/ha ([1]; pre-emergence, 480 h, Rate 250 g/ha, pre-emergence, assessed visually 20 DAA, 100%=total damage, 0%=no damage, read-out: Pre-emergence herbicidal activity (percentage phytotoxicity) ECHCG PRE): 60%; pest or weed control at 250 g/ha (Lolium perenne (LOLPE); post-emergence, 360 h, Rate 250 g/ha, post-emergence, assessed visually 15 DAA, 100%=total damage, 0%=no damage, read-out: Post-emergence herbicidal activity (percentage phytotoxicity) LOLPE POST): 90%; pest or weed control at 250 g/ha (Lolium perenne (LOLPE); pre-emergence, 480 h, Rate 250 g/ha, pre-emergence, assessed visually 20 DAA, 100%=total damage, 0%=no damage, read-out: Pre-emergence herbicidal activity (percentage phytotoxicity) LOLPE PRE): 60%; pest or weed control at 250 g/ha ([2]; post-emergence, 360 h, Rate 250 g/ha, post-emergence, assessed visually 15 DAA, 100%=total damage, 0%=no damage, read-out: Post-emergence herbicidal activity (percentage phytotoxicity) ALOMY POST): 70%; pest or weed control at 250 g/ha ([2]; pre-emergence, 480 h, Rate 250 g/ha, pre-emergence, assessed visually 20 DAA, 100%=total damage, 0%=no damage, read-out: Pre-emergence herbicidal activity (percentage phytotoxicity) ALOMY PRE): 0%
